Assay results as given in US20170058314A1, “NOVEL METHODOLOGY FOR IDENTIFYING ANTI-PERSISTER ACTIVITY AND ANTIMICROBIAL SUSCEPTIBILITY FOR BORRELIA BURGDORFERI AND OTHER BACTERIA” (priority 2014, published 2017).
≈ marks a conversion by molar mass, not a printed value. Marks after values point to notes of the source that are not given here.

Columns and labels:
[1] = system: round body form of B. burgdorferi; assay: SYBR Green I/PI assay on amoxicillin-induced round body form; conditions: for Live cell %, round body form: 10 μg/mL drugs or combinations; for Live cell %, round body form / Ratios of green/red fluorescence, Primary screening / Ratios of green/red fluorescence, Rescreening (first column) / Ratios of green/red fluorescence, Rescreening (second column): 7 days; for viability at 50 µM: Borreliella burgdorferi, 168 h, read-out: Residual viable cells (SYBR Green I/PI assay); for Ratios of green/red fluorescence, Primary screening / Ratios of green/red fluorescence, Rescreening (first column) / Ratios of green/red fluorescence, Rescreening (second column): round body form, 50 μM
[2] = system: B. burgdorferi (growing, strain B31); assay: MIC determination, standard microdilution method; type: cell-based, Borrelia burgdorferi
[3] = system: log phase and stationary phase B. burgdorferi culture; assay: Antibiotic exposure assay, SYBR Green I/PI (drugs alone and combinations); conditions: for Live cell %, ten day old stationary phase culture (in brackets): 10 μg/mL drugs or combinations; for viability at 10 µg/mL: Borreliella burgdorferi, 168 h, read-out: Live Cell % (residual viable B. burgdorferi), ten-day-old stationary phase culture enriched with micro-colonies, 10 μg/mL each drug, 7 days
Experimental: To qualitatively determine the effect of antibiotics, 10 μL of each compound from the pre-diluted plate or pre-diluted stock was added to stationary phase B. burgdorferi culture in the 96-well plate. The final volume per well was adjusted to 100 μL at a concentration of 10 μg/mL for each antibiotic. Plates were sealed and placed in a 33° C. incubator for 7 days. The SYBR Green I/PI viability assay was used to assess the live and dead cells after antibiotic exposure as described (Feng, Wang, Shi, et al., 2014). Briefly, 10 μL of SYBR Green I (10,000×stock, Invitrogen) was mixed with 30 μL propidium iodide (PI, 20 mM) into 1.0 mL of sterile dH2O. Then, 10 μL of staining mixture was added to each well and mixed thoroughly. The plates were incubated at room temperature in the dark for 15 minutes followed by plate reading at excitation wavelength at 485 nm and the fluorescence intensity at 535 nm (green emission) and 635 nm (red emission) in microplate reader (HTS 7000 plus Bio Assay Reader, PerkinElmer Inc., USA). With least-square fitting analysis, the regression equation and regression curve of the relationship between percentage of live bacteria and green/red fluorescence ratios was obtained. The regression equation was used to calculate the percentage of live cells in each well of the 96-well plate.
To qualitatively determine the effect of antibiotics, 10 μL of each compound (final concentration 50 μM) from the pre-diluted plate or pre-diluted stock was added to round body form or stationary phase B. burgdorferi culture in the 96-well plate. The final volume per well was adjusted to 100 μL. Plates were sealed and placed in a 33° C. incubator for 7 days. The SYBR Green I/PI viability assay was used to assess the live and dead cells after antibiotic exposure as described (Feng, Wang, Shi, et al., 2014). Briefly, 10 μL of SYBR Green I (10,000×stock, Invitrogen) was mixed with 30 μL propidium iodide (PI, 20 mM, Sigma-Aldrich) into 1.0 mL of sterile dH2O. Then, 10 μL staining mixture was added to each well and mixed thoroughly. The plates were incubated at room temperature in the dark for 15 minutes followed by plate reading at excitation wavelength at 485 nm and the fluorescence intensity at 535 nm (green emission) and 635 nm (red emission) in microplate reader (HTS 7000 plus Bio Assay Reader, PerkinElmer Inc., USA). With least-square fitting analysis, the regression equation and regression curve of the relationship between percentage of live and dead bacteria as shown in green/red fluorescence ratios was obtained. The regression equation was used to calculate the percentage of live cells in each well of the 96-well plate.
Round body form and ten day old stationary phase (in brackets) B. burgdorferi culture was treated with 10 μg/mL drugs or their combinations for 7 days. Residual viable B. burgdorferi was calculated according to the regression equation and ratio of Green/Red fluorescence obtained by SYBR Green I/PI assay as described (Feng, Wang, Shi, et al., 2014). Direct microscopy counting was employed to rectify the results of the SYBR Green I/PI assay. […] Abbreviation: Dox, doxcycline; CefP, cefoperazone; DAP, daptomycin; CefM, cefmetazole; Scp, sulfachlorpyridazine; Art, artemisinin; Nft, nitrofurantoin.

[4] = system: stationary phase B. burgdorferi persisters (strain B31); assay: SYBR Green I/PI viability assay (plate reader), FDA-approved drug library screen; conditions: for Ratio of Green/Red fluorescence, Primary screening / Ratio of Green/Red fluorescence, Rescreening (first column) / Ratio of Green/Red fluorescence, Rescreening (second column): 50 μM, 7 days, stationary phase; for viability at 50 µM: Borreliella burgdorferi, 168 h, read-out: Residual viable cells (regression equation, SYBR Green I/PI assay)
[5] = system: stationary phase B. burgdorferi persisters (strain B31); assay: epifluorescence microscope counting after SYBR Green I/PI staining, FDA drug screen; conditions: Borreliella burgdorferi, 168 h, read-out: Residual viable cells (epifluorescence microscope counting)
[6] = system: S. aureus strains (Newman, USA300, CA-409, CA-127, NY-315); assay: Rapid SYBR Green/PI antibiotic susceptibility test; type: cell-based, Staphylococcus aureus; conditions: for cut-off (averaged proportion of killed cells) for resistant strains / cut-off (averaged proportion of killed cells) for susceptible strains: 100 μg/mL, 1.5 hours; for percent killed, resistant strain NY-315: kanamycin 25, erythromycin 400 μg/mL; for percent killed, sensitive Newman strain: kanamycin 25, erythromycin 400, ciprofloxacin 50, gentamicin 400 μg/mL; for percent killed, resistant strain CA-409: kanamycin 25, ciprofloxacin 50, gentamicin 400 μg/mL

C[C@@H]1CC[C@H]2[C@@H](C)C(=O)O[C@@H]3O[C@@]4(C)CC[C@@H]1[C@]32OO4 [Artemisinin]
Live cell %, round body form [1]: 28%
viability at 50 µM [1]: 24%
Ratios of green/red fluorescence, Primary screening [1]: 5.96
Ratios of green/red fluorescence, Rescreening (first column) [1]: 6.14
Ratios of green/red fluorescence, Rescreening (second column) [1]: 6.17
MIC ([2]; Borreliella burgdorferi, growing B. burgdorferi, read-out: MIC): 50 to 100 µg/mL (≈ 177 to 354 µM)
Live cell %, ten day old stationary phase culture (in brackets) ([3]; 7 days): 73%

CC[C@H]1OC(=O)[C@H](C)[C@@H](O[C@H]2C[C@@](C)(OC)[C@@H](O)[C@H](C)O2)[C@H](C)[C@@H](O[C@@H]2O[C@H](C)C[C@H](N(C)C)[C@H]2O)[C@](C)(O)C[C@@H](C)CN(C)[C@H](C)[C@@H](O)[C@]1(C)O [Azithromycin]
viability at 50 µM [1]: 47%
Ratios of green/red fluorescence, Primary screening [1]: 6.79
Ratios of green/red fluorescence, Rescreening (first column) [1]: 6.52
Ratios of green/red fluorescence, Rescreening (second column) [1]: 6.42
Ratio of Green/Red fluorescence, Primary screening [4]: 8.33
Ratio of Green/Red fluorescence, Rescreening (first column) [4]: 8.10
Ratio of Green/Red fluorescence, Rescreening (second column) [4]: 7.92
viability at 50 µM [4]: 80%
viability at 50 µM [5]: 77%

CO[C@@]1(NC(=O)CSCC#N)C(=O)N2C(C(=O)O)=C(CSc3nnnn3C)CS[C@@H]21 [Cefmetazole]
Live cell %, round body form [1]: 34%
viability at 50 µM [1]: 33%
Ratios of green/red fluorescence, Primary screening [1]: 6.13
Ratios of green/red fluorescence, Rescreening (first column) [1]: 6.25
Ratios of green/red fluorescence, Rescreening (second column) [1]: 6.46
Ratio of Green/Red fluorescence, Primary screening [4]: 6.80
Ratio of Green/Red fluorescence, Rescreening (first column) [4]: 7.38
Ratio of Green/Red fluorescence, Rescreening (second column) [4]: 6.00
viability at 50 µM [4]: 43%
Live cell %, ten day old stationary phase culture (in brackets) ([3]; 7 days): 53%

Nc1nc(/C(=C/CC(=O)O)C(=O)N[C@@H]2C(=O)N3C(C(=O)O)=CCS[C@H]23)cs1 [Ceftibuten]
Ratio of Green/Red fluorescence, Primary screening [4]: 6.81
Ratio of Green/Red fluorescence, Rescreening (first column) [4]: 6.78
Ratio of Green/Red fluorescence, Rescreening (second column) [4]: 7.27
viability at 50 µM [4]: 49%
viability at 50 µM [5]: 51%

CO/N=C(\C(=O)N[C@@H]1C(=O)N2C(C(=O)O)=C(COC(N)=O)CS[C@H]12)c1ccco1 [Cefuroxime]
viability at 50 µM [1]: 34%
Ratios of green/red fluorescence, Primary screening [1]: 6.29
Ratios of green/red fluorescence, Rescreening (first column) [1]: 6.28
Ratios of green/red fluorescence, Rescreening (second column) [1]: 6.31
Ratio of Green/Red fluorescence, Primary screening [4]: 6.59
Ratio of Green/Red fluorescence, Rescreening (first column) [4]: 6.84
Ratio of Green/Red fluorescence, Rescreening (second column) [4]: 6.67
viability at 50 µM [4]: 43%
viability at 50 µM [5]: 49%

CC(=O)OCC1=C(C(=O)O)N2C(=O)[C@@H](NC(=O)Cc3cccs3)[C@H]2SC1 [Cephalothin]
Ratio of Green/Red fluorescence, Primary screening [4]: 6.74
Ratio of Green/Red fluorescence, Rescreening (first column) [4]: 6.49
Ratio of Green/Red fluorescence, Rescreening (second column) [4]: 6.55
viability at 50 µM [4]: 40%
viability at 50 µM [5]: 49%

CC1(C)S[C@@H]2[C@H](NC(=O)C3(N)CCCCC3)C(=O)N2[C@H]1C(=O)O [Cyclacillin]
Ratio of Green/Red fluorescence, Primary screening [4]: 6.81
Ratio of Green/Red fluorescence, Rescreening (first column) [4]: 6.88
Ratio of Green/Red fluorescence, Rescreening (second column) [4]: 7.64
viability at 50 µM [4]: 53%
viability at 50 µM [5]: 51%

CCN(CCO)CCCC(C)Nc1ccnc2cc(Cl)ccc12 (centres unmarked) [Hcq, hydroxychloroquine]
viability at 10 µg/mL [3]: 71%

Clc1ccc(COC(Cn2ccnc2)c2ccc(Cl)cc2Cl)c(Cl)c1 (centres unmarked) [Mcz, miconazole]
sensitivity of log phase / multiplying B. burgdorferi (words, FIG. 12) ([2]; MIC test): less potent
viability at 10 µg/mL [3]: 65%

O=C1CN(/N=C/c2ccc([N+](=O)[O-])o2)C(=O)N1 [Nft, nitrofurantoin]
Live cell %, round body form [1]: 33%
Live cell %, ten day old stationary phase culture (in brackets) ([3]; 7 days): 82%

CC1COc2c(N3CCN(C)CC3)c(F)cc3c(=O)c(C(=O)O)cn1c23 (centres unmarked) [Ofl, ofloxacin]
viability at 10 µg/mL [3]: 81%

CO[C@H]1/C=C/O[C@@]2(C)Oc3c(C)c(O)c4c(O)c(c(/C=N/N5CCN(C)CC5)c(O)c4c3C2=O)NC(=O)/C(C)=C\C=C\[C@H](C)[C@H](O)[C@@H](C)[C@@H](O)[C@@H](C)[C@H](OC(C)=O)[C@@H]1C [Rif, rifampin]
viability at 10 µg/mL [3]: 82%

Nc1ccc(S(=O)(=O)Nc2ccc(Cl)nn2)cc1 [Scp, sulfachlorpyridazine]
Live cell %, round body form [1]: 38%
Live cell %, ten day old stationary phase culture (in brackets) ([3]; 7 days): 68%
residual viable / live cells, stated in text for stationary phase B. burgdorferi ([3]; drug combination test, refers to Table 6): about 38%

CN(C)[C@@H]1C(O)=C(C(N)=O)C(=O)[C@@]2(O)C(O)=C3C(=O)c4c(O)cccc4[C@@](C)(O)[C@H]3C[C@@H]12 [Tetracycline]
viability at 50 µM [4]: 50%
viability at 50 µM [5]: 54%

CC[C@H]1OC(=O)[C@H](C)[C@@H](O[C@H]2C[C@@](C)(OC)[C@@H](O)[C@H](C)O2)[C@H](C)[C@@H](O[C@@H]2O[C@H](C)C[C@H](N(C)C)[C@H]2O)[C@](C)(O)C[C@@H](C)C(=O)[C@H](C)[C@@H](O)[C@]1(C)O [erythromycin]
cut-off (averaged proportion of killed cells) for resistant strains [6]: −0.1
cut-off (averaged proportion of killed cells) for susceptible strains [6]: −0.4
percent killed, resistant strain NY-315 ([6]; 30 minutes): 17%
percent killed, sensitive Newman strain ([6]; 30 minutes): 50%

NC[C@H]1O[C@H](O[C@H]2[C@H](O)[C@@H](O[C@H]3O[C@H](CO)[C@@H](O)[C@H](N)[C@H]3O)[C@H](N)C[C@@H]2N)[C@H](O)[C@@H](O)[C@@H]1O [kanamycin]
cut-off (averaged proportion of killed cells) for resistant strains [6]: −0.01
cut-off (averaged proportion of killed cells) for susceptible strains [6]: −0.2
percent killed, resistant strain CA-127 ([6]; 30 minutes, kanamycin 25, ciprofloxacin 50 μg/mL): 5%
percent killed, resistant strain CA-409 ([6]; 30 minutes): 5%
percent killed, resistant strain NY-315 ([6]; 30 minutes): 5%
percent killed, sensitive Newman strain ([6]; 30 minutes): 27%

gentamicin
cut-off (averaged proportion of killed cells) for resistant strains [6]: −0.2
cut-off (averaged proportion of killed cells) for susceptible strains [6]: −0.3
percent killed, resistant strain CA-409 ([6]; 30 minutes): 10%
percent killed, sensitive Newman strain ([6]; 30 minutes): 27%

polymyxin B [Pmb]
Live Cell % (residual viable B. burgdorferi) ([3]; ten-day-old stationary phase culture enriched with micro-colonies, 10 μg/mL each drug, 7 days): 77% ^c
